The OligoGym collection
HELM strings list units from the 5' end as sugar, base in round brackets, then linkage (d deoxyribose, r ribose, m 2'-O-methyl, p phosphodiester). Strings are as the collection lists them, not checked against the first reports. ss, as = sense and antisense strand

Settings: siRNA
Also: test system not given here.

Substance	target mRNA knockdown
RNA1{m(G)p.r(A)p.m(C)p.r(A)p.m(A)p.r(G)p.m(G)p.r(G)p.m(A)p.r(A)p.m(G)p.r(G)p.m(U)p.r(U)p.m(A)p.r(G)p.m(C)p.r(C)p.m(U)p.r(T)p.r(T)}|RNA2{r(A)p.r(G)p.r(G)p.r(C)p.r(U)p.r(A)p.r(A)p.r(C)p.r(C)p.r(U)p.r(U)p.r(C)p.r(C)p.r(C)p.r(U)p.r(U)p.r(G)p.r(U)p.r(C)p.r(T)p.r(T)}$$$RNA1{StrandType:ss}|RNA2{StrandType:as}$	34%
RNA1{m(G)p.r(A)p.m(G)p.r(A)p.m(G)p.r(A)p.m(G)p.r(A)p.m(C)p.r(G)p.m(G)p.r(U)p.m(G)p.r(G)p.m(A)p.r(A)p.m(G)p.r(A)p.m(A)p.r(T)p.r(T)}|RNA2{r(U)p.r(U)p.r(C)p.r(U)p.r(U)p.r(C)p.r(C)p.r(A)p.r(C)p.r(C)p.m(G)p.r(U)p.r(C)p.r(U)p.r(C)p.r(U)p.r(C)p.r(U)p.r(C)p.r(T)p.r(T)}$$$RNA1{StrandType:ss}|RNA2{StrandType:as}$	56%
RNA1{m(G)p.r(A)p.m(G)p.r(G)p.m(A)p.r(U)p.m(G)p.r(G)p.m(A)p.r(U)p.m(U)p.r(C)p.m(G)p.r(A)p.m(C)p.r(U)p.m(U)p.r(A)p.r(G)p.r(T)p.r(T)}|RNA2{r(C)p.m(U)p.r(A)p.r(A)p.r(G)p.m(U)p.r(C)p.r(G)p.r(A)p.r(A)p.m(U)p.r(C)p.r(C)p.r(A)p.r(U)p.r(C)p.r(C)p.r(U)p.r(C)p.r(T)p.r(T)}$$$RNA1{StrandType:ss}|RNA2{StrandType:as}$	23%
RNA1{m(G)p.r(A)p.m(U)p.r(A)p.m(C)p.r(U)p.m(U)p.r(C)p.m(U)p.r(G)p.m(G)p.r(U)p.m(U)p.r(C)p.m(C)p.r(C)p.m(U)p.r(C)p.m(C)p.r(T)p.r(T)}|RNA2{r(G)p.r(G)p.r(A)p.r(G)p.r(G)p.r(G)p.r(A)p.r(A)p.r(C)p.r(C)p.r(A)p.r(G)p.r(A)p.r(A)p.r(G)p.r(U)p.r(A)p.r(U)p.r(C)p.r(T)p.r(T)}$$$RNA1{StrandType:ss}|RNA2{StrandType:as}$	45%
RNA1{m(G)p.r(A)p.m(U)p.r(U)p.m(C)p.r(C)p.m(A)p.r(A)p.m(A)p.r(C)p.m(C)p.r(C)p.m(C)p.r(A)p.m(C)p.r(U)p.m(A)p.r(U)p.m(C)p.r(T)p.r(T)}|RNA2{r(G)p.r(A)p.r(U)p.r(A)p.r(G)p.r(U)p.r(G)p.r(G)p.r(G)p.r(G)p.r(U)p.r(U)p.r(U)p.r(G)p.r(G)p.r(A)p.r(A)p.r(U)p.r(C)p.r(T)p.r(T)}$$$RNA1{StrandType:ss}|RNA2{StrandType:as}$	54%
RNA1{m(G)p.r(C)p.m(A)p.m(G)p.m(A)p.m(G)p.m(A)p.m(A)p.r(U)p.r(C)p.r(U)p.m(A)p.r(C)p.r(C)p.r(U)p.r(U)p.r(U)p.r(C)p.r(C)p.r(T)p.r(T)}|RNA2{r(G)p.r(G)p.r(A)p.r(A)p.r(A)p.r(G)p.r(G)p.r(U)p.r(A)p.r(G)p.r(A)p.r(U)p.r(U)p.r(C)p.r(U)p.r(C)p.r(U)p.r(G)p.r(C)p.r(T)p.r(T)}$$$RNA1{StrandType:ss}|RNA2{StrandType:as}$	65%
RNA1{m(G)p.r(C)p.m(A)p.r(A)p.m(G)p.r(U)p.m(G)p.r(G)p.m(C)p.r(A)p.m(A)p.r(G)p.m(A)p.r(G)p.m(G)p.r(A)p.m(U)p.r(U)p.r(A)p.r(T)p.r(T)}|RNA2{r(U)p.r(A)p.r(A)p.r(U)p.r(C)p.r(C)p.r(U)p.r(C)p.r(U)p.r(U)p.r(G)p.r(C)p.r(C)p.r(A)p.r(C)p.r(U)p.r(U)p.r(G)p.r(C)p.r(T)p.r(T)}$$$RNA1{StrandType:ss}|RNA2{StrandType:as}$	55%
RNA1{m(G)p.r(C)p.m(G)p.m(A)p.m(G)p.r(C)p.m(A)p.m(G)p.m(A)p.m(G)p.m(A)p.m(A)p.r(U)p.r(C)p.r(U)p.m(A)p.r(C)p.r(C)p.r(U)p.r(T)p.r(T)}|RNA2{r(A)p.r(G)p.r(G)p.r(U)p.r(A)p.r(G)p.r(A)p.r(U)p.r(U)p.r(C)p.r(U)p.r(C)p.r(U)p.r(G)p.r(C)p.r(U)p.r(C)p.r(G)p.r(C)p.r(T)p.r(T)}$$$RNA1{StrandType:ss}|RNA2{StrandType:as}$	65%
RNA1{m(G)p.r(C)p.m(U)p.r(G)p.m(A)p.r(G)p.m(G)p.r(A)p.m(A)p.r(A)p.m(G)p.r(G)p.m(G)p.r(A)p.m(C)p.r(A)p.m(U)p.r(C)p.m(U)p.r(T)p.r(T)}|RNA2{r(A)p.r(G)p.r(A)p.r(U)p.r(G)p.r(U)p.r(C)p.r(C)p.r(C)p.r(U)p.r(U)p.r(U)p.r(C)p.r(C)p.r(U)p.r(C)p.r(A)p.r(G)p.r(C)p.r(T)p.r(T)}$$$RNA1{StrandType:ss}|RNA2{StrandType:as}$	61%
RNA1{m(G)p.r(C)p.m(U)p.r(U)p.m(U)p.r(A)p.m(A)p.r(G)p.m(G)p.r(A)p.m(A)p.r(C)p.m(U)p.r(G)p.m(G)p.r(A)p.m(A)p.r(G)p.m(G)p.r(T)p.r(T)}|RNA2{r(C)p.m(C)p.r(U)p.m(U)p.r(C)p.m(C)p.r(A)p.m(G)p.r(U)p.m(U)p.r(C)p.r(C)p.r(U)p.r(U)p.r(A)p.r(A)p.r(A)p.r(G)p.r(C)p.r(T)p.r(T)}$$$RNA1{StrandType:ss}|RNA2{StrandType:as}$	25%
RNA1{m(G)p.r(C)p.m(U)p.r(U)p.m(U)p.r(A)p.m(A)p.r(G)p.m(G)p.r(A)p.m(A)p.r(C)p.m(U)p.r(G)p.m(G)p.r(A)p.m(A)p.r(G)p.m(G)p.r(T)p.r(T)}|RNA2{r(C)p.r(C)p.r(U)p.r(U)p.r(C)p.r(C)p.r(A)p.m(G)p.r(U)p.r(U)p.r(C)p.r(C)p.r(U)p.r(U)p.r(A)p.r(A)p.r(A)p.m(G)p.r(C)p.r(T)p.r(T)}$$$RNA1{StrandType:ss}|RNA2{StrandType:as}$	51%
RNA1{m(G)p.r(G)p.m(A)p.r(A)p.m(G)p.r(U)p.m(A)p.r(A)p.m(G)p.r(G)p.m(A)p.r(C)p.m(C)p.r(A)p.m(G)p.r(A)p.m(G)p.r(A)p.m(C)p.r(T)p.r(T)}|RNA2{m(G)p.r(U)p.r(C)p.r(U)p.r(C)p.r(U)p.m(G)p.m(G)p.r(U)p.r(C)p.r(C)p.r(U)p.r(U)p.r(A)p.r(C)p.r(U)p.r(U)p.r(C)p.r(C)p.r(T)p.r(T)}$$$RNA1{StrandType:ss}|RNA2{StrandType:as}$	23%
RNA1{m(G)p.r(G)p.m(A)p.r(A)p.m(G)p.r(U)p.m(C)p.r(C)p.m(A)p.r(C)p.m(C)p.r(U)p.m(U)p.r(C)p.m(U)p.r(C)p.m(C)p.r(G)p.m(A)p.r(T)p.r(T)}|RNA2{m(U)p.r(C)p.r(G)p.r(G)p.r(A)p.r(G)p.r(A)p.r(A)p.r(G)p.r(G)p.m(U)p.r(G)p.r(G)p.r(A)p.r(C)p.m(U)p.m(U)p.r(C)p.r(C)p.r(T)p.r(T)}$$$RNA1{StrandType:ss}|RNA2{StrandType:as}$	27%
RNA1{m(G)p.r(G)p.m(A)p.r(G)p.m(C)p.r(A)p.m(C)p.r(G)p.m(C)p.r(U)p.m(U)p.r(A)p.m(C)p.r(U)p.m(A)p.r(C)p.m(C)p.r(U)p.m(U)p.r(T)p.r(T)}|RNA2{r(A)p.r(A)p.r(G)p.r(G)p.r(U)p.r(A)p.r(G)p.r(U)p.r(A)p.r(A)p.r(G)p.r(C)p.r(G)p.r(U)p.r(G)p.r(C)p.r(U)p.r(C)p.r(C)p.r(T)p.r(T)}$$$RNA1{StrandType:ss}|RNA2{StrandType:as}$	51%
RNA1{m(G)p.r(G)p.m(A)p.r(G)p.m(C)p.r(U)p.m(A)p.r(G)p.m(A)p.r(C)p.m(G)p.r(G)p.m(G)p.r(U)p.m(A)p.r(C)p.m(G)p.r(A)p.r(G)p.r(T)p.r(T)}|RNA2{r(C)p.r(U)p.r(C)p.r(G)p.r(U)p.r(A)p.r(C)p.r(C)p.r(C)p.r(G)p.r(U)p.r(C)p.r(U)p.r(A)p.r(G)p.r(C)p.r(U)p.r(C)p.r(C)p.r(T)p.r(T)}$$$RNA1{StrandType:ss}|RNA2{StrandType:as}$	75%
RNA1{m(G)p.r(G)p.m(C)p.r(C)p.m(A)p.r(A)p.m(A)p.r(G)p.m(U)p.r(A)p.m(A)p.r(U)p.m(C)p.r(G)p.m(U)p.r(G)p.m(G)p.r(U)p.m(U)p.r(T)p.r(T)}|RNA2{r(A)p.r(A)p.r(C)p.r(C)p.r(A)p.r(C)p.r(G)p.r(A)p.r(U)p.r(U)p.r(A)p.r(C)p.r(U)p.r(U)p.r(U)p.r(G)p.r(G)p.r(C)p.r(C)p.r(T)p.r(T)}$$$RNA1{StrandType:ss}|RNA2{StrandType:as}$	37%
RNA1{m(G)p.r(G)p.m(C)p.r(C)p.m(U)p.r(U)p.m(U)p.r(C)p.m(U)p.r(C)p.m(U)p.r(C)p.m(U)p.r(A)p.m(G)p.r(A)p.m(U)p.r(A)p.m(U)p.r(T)p.r(T)}|RNA2{r(A)p.r(U)p.r(A)p.r(U)p.r(C)p.r(U)p.r(A)p.r(G)p.r(A)p.r(G)p.r(A)p.r(G)p.r(A)p.r(A)p.r(A)p.m(G)p.r(G)p.r(C)p.r(C)p.r(T)p.r(T)}$$$RNA1{StrandType:ss}|RNA2{StrandType:as}$	80%
RNA1{m(G)p.r(G)p.m(C)p.r(G)p.m(G)p.r(G)p.m(C)p.r(U)p.m(C)p.r(U)p.m(U)p.r(U)p.m(C)p.r(C)p.m(U)p.r(A)p.m(U)p.r(U)p.m(C)p.r(T)p.r(T)}|RNA2{r(G)p.r(A)p.r(A)p.r(U)p.r(A)p.r(G)p.r(G)p.r(A)p.r(A)p.r(A)p.r(G)p.r(A)p.r(G)p.r(C)p.r(C)p.r(C)p.r(G)p.r(C)p.r(C)p.r(T)p.r(T)}$$$RNA1{StrandType:ss}|RNA2{StrandType:as}$	51%
RNA1{m(G)p.r(G)p.m(G)p.r(A)p.m(G)p.r(G)p.m(U)p.r(C)p.m(U)p.r(U)p.m(A)p.r(G)p.m(A)p.r(A)p.m(A)p.r(A)p.m(C)p.r(A)p.m(C)p.r(T)p.r(T)}|RNA2{r(G)p.r(U)p.r(G)p.r(U)p.r(U)p.r(U)p.r(U)p.r(C)p.r(U)p.r(A)p.r(A)p.r(G)p.r(A)p.r(C)p.r(C)p.r(U)p.r(C)p.r(C)p.r(C)p.r(T)p.r(T)}$$$RNA1{StrandType:ss}|RNA2{StrandType:as}$	17%
RNA1{m(G)p.r(G)p.m(G)p.r(G)p.m(C)p.r(U)p.m(C)p.r(U)p.m(U)p.r(C)p.m(U)p.r(A)p.m(C)p.r(A)p.m(U)p.r(U)p.m(C)p.r(C)p.m(C)p.r(T)p.r(T)}|RNA2{r(G)p.r(G)p.r(G)p.r(A)p.r(A)p.r(U)p.r(G)p.r(U)p.r(A)p.r(G)p.r(A)p.r(A)p.r(G)p.r(A)p.r(G)p.r(C)p.r(C)p.r(C)p.r(C)p.r(T)p.r(T)}$$$RNA1{StrandType:ss}|RNA2{StrandType:as}$	51%
RNA1{m(G)p.r(G)p.m(U)p.r(A)p.m(G)p.r(A)p.m(A)p.r(U)p.m(A)p.r(G)p.m(G)p.r(U)p.m(U)p.r(U)p.m(U)p.r(C)p.m(C)p.r(C)p.m(C)p.r(T)p.r(T)}|RNA2{r(G)p.r(G)p.r(G)p.r(G)p.r(A)p.r(A)p.r(A)p.r(A)p.r(C)p.r(C)p.r(U)p.r(A)p.r(U)p.r(U)p.r(C)p.r(U)p.r(A)p.r(C)p.r(C)p.r(T)p.r(T)}$$$RNA1{StrandType:ss}|RNA2{StrandType:as}$	11%
